ChEMBL document CHEMBL6121063, “Identification of a Potent and Selective CDK9 Degrader as a Targeted Therapeutic Option for the Treatment of Small-Cell Lung Cancer” (J Med Chem, 2025)
Calls of active or inactive are those of the source. The calls are words filed in the database; no cut-off is given here.

Columns and labels:
[1] = target: CDK6/cyclin D3 (Homo sapiens) (UniProt P30281+Q00534); test: Inhibition of CDK6/cyclin D3 (unknown origin) at 10 nM relative to control; type: protein-complex assay
[2] = tested on: NCI-H446; test: Cell cycle arrest in human NCI-H446 cells assessed as increase in G1 phase population incubated for 36 hrs by PI staining based flow cytometric analysis; type: functional; details: dose 0.5-2 nM
[3] = target: T1, Protein cereblon/Cyclin-dependent kinase 9 (Homo sapiens, UniProt P50750+Q96SW2); test: In vivo PROTAC activity at CRBN/CDK9 in female BALB/c nude mouse xenografted with human NCI-H446 cells assessed as induction of CDK9 degradation in tumor at 25 mg/kg, po measured after 24 hrs by Western blot analysis; type: functional, organism-based
[4] = tested on: NCI-H69; test: Downregulation of CDK9 protein level in human NCI-H69 cells at 1 to 10 nM incubated for 8 hrs by Western blot analysis; type: functional, cell-based; details: dose 1-10 nM
[5] = target: T1, Protein cereblon/Cyclin-dependent kinase 9; test: In vivo PROTAC activity at CRBN/CDK9 in female BALB/c nude mouse xenografted with human NCI-H446 cells assessed as induction of CDK9 degradation in tumor at 25 mg/kg, po measured after 6 to 12 hrs by Western blot analysis; type: functional, organism-based; details: time 6-12 hrs
[6] = target: T1, Protein cereblon/Cyclin-dependent kinase 9; test: PROTAC activity at CRBN/CDK9 in human NCI-H446 cells assessed as increase in CDK9 ubiquitination preincubated with MG132 for 2 hrs followed by compound addition and measured after 3 hrs by co-immunoprecipitation analysis; type: cell-based
[7] = tested on: NCI-H69; test: Antiproliferative activity against human NCI-H69 cells assessed as reduction in cell viability incubated for 72 hrs in presence of thalidomide by celltiter-Glo assay; type: functional, cell-based
[8] = tested on: NCI-H69; test: Induction of apoptosis in human NCI-H69 cells assessed as increase in p53 level incubated for 36 hrs by Western blot analysis; type: functional, cell-based
[9] = tested on: DMS-114; test: Inhibition of colony formation in human DMS-114 cells at 2 to 4 nM incubated for 8 days by crystal violet staining based analysis; type: functional, cell-based; details: dose 2-4 nM, time 8.0 day
[10] = tested on: NCI-H446; test: Induction of apoptosis in human NCI-H446 cells incubated for 36 hrs by Annexin V-FITC/PI staining based flow cytometric analysis; type: functional, cell-based; details: dose 1-8 nM
[11] = tested on: NCI-H69; test: Inhibition of colony formation in human NCI-H69 cells at 2 to 4 nM incubated for 8 days by crystal violet staining based analysis; type: functional, cell-based; details: dose 2-4 nM, time 8.0 day
[12] = target: Cyclin-dependent kinase 9 (Homo sapiens) (UniProt P50750); test: Inhibition of CDK9-related signaling in human NCI-H69 cells assessed as reduction in c-MYC expression level at 0.5 to 10 nM incubated for 24 hrs by Western blot analysis; type: cell-based; details: dose 0.5-10 nM
[13] = tested on: NCI-H69; test: Induction of apoptosis in human NCI-H69 cells incubated for 36 hrs by Annexin V-FITC/PI staining based flow cytometric analysis; type: functional, cell-based; details: dose 1-8 nM
[14] = target: Cyclin-Y/Cyclin-dependent kinase 16 (Homo sapiens) (UniProt Q00536+Q8ND76); details: dose 10.0 nM
[15] = target: CDK3/Cyclin E (Homo sapiens) (UniProt P24864+Q00526); test: Inhibition of CDK3/cyclin E1 (unknown origin) at 10 nM relative to control; type: protein-complex assay
[16] = tested on: DMS-53; test: Inhibition of cell invasion in human DMS-53 cells assessed as decrease in number of cells passing through upper chamber at 2to 4 nM incubated for 48 hrs by crystal violet staining based microscopic analysis; type: functional
[17] = target: CDK2/Cyclin A2 (Homo sapiens) (UniProt P24941+P20248); details: dose 10.0 nM
[18] = tested on: NCI-H446; test: Downregulation of CDK9 protein level in human NCI-H446 cells at 10 nM incubated for 3 hrs by quantitative proteomic analysis; type: functional, cell-based
[19] = tested on: Small cell lung cancer cell line; test: Antitumor activity against LDI-0060-200770 patient derived Small cell lung cancer cell line xenografted in BALB/c nude mouse assessed as reduction in tumor growth at 25 mg/kg, po administered once daily for 7 days; type: functional, organism-based; details: Homo sapiens, time 7.0 day
[20] = target: T1, Protein cereblon/Cyclin-dependent kinase 9; test: PROTAC activity at CRBN/CDK9 in human NCI-H69 cells assessed as induction of CDK9 degradation by measuring reduction in half-life incubated upto 24 hrs in presence of cycloheximide by Western blot analysis; type: cell-based
[21] = tested on: NCI-H69; test: Induction of apoptosis in human NCI-H69 cells assessed as increase in cleaved PARP level incubated for 36 hrs by Western blot analysis; type: functional, cell-based
[22] = target: CDK1/Cyclin E (Homo sapiens) (UniProt P06493+P24864); test: Inhibition of CDK1/cyclin E1 (unknown origin) at 10 nM relative to control; type: protein-complex assay
[23] = target: T1, Protein cereblon/Cyclin-dependent kinase 9; test: PROTAC activity at CRBN/CDK9 in human NCI-H69 cells assessed as increase in CDK9 ubiquitination preincubated with MG132 for 2 hrs followed by compound addition and measured after 3 hrs by co-immunoprecipitation analysis; type: cell-based
[24] = tested on: NCI-H446; test: Antitumor activity against human NCI-H446 cells expressing luciferase-GFP xenografted in female NU-NU mouse model assessed as decrease in tumor burden at 12.5 to 25 mg/kg, po administered for 19 days; type: functional, organism-based; details: dose 12.5-25 mg/kg, time 19.0 day
[25] = tested on: NCI-H446; test: Antitumor activity against human NCI-H446 cells xenografted in female NU-NU mouse model assessed as decrease in Ki67 level in tumor at 12.5 to 25 mg/kg, po administered once daily for 15 days by immunohistochemical staining based analysis; type: functional, organism-based; details: dose 12.5-25 mg/kg, time 15.0 day

T1 sequence (P50750 whole entry, looked up): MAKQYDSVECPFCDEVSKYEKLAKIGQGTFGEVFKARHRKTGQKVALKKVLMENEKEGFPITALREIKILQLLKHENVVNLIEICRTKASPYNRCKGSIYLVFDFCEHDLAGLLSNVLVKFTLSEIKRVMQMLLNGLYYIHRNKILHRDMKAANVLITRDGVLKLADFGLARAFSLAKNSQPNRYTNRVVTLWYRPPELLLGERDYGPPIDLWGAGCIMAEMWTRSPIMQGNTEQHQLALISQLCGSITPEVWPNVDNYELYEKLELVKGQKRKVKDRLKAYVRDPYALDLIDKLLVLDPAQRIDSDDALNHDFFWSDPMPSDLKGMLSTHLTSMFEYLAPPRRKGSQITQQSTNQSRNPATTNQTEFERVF
T1 sequence (Q96SW2 whole entry, looked up): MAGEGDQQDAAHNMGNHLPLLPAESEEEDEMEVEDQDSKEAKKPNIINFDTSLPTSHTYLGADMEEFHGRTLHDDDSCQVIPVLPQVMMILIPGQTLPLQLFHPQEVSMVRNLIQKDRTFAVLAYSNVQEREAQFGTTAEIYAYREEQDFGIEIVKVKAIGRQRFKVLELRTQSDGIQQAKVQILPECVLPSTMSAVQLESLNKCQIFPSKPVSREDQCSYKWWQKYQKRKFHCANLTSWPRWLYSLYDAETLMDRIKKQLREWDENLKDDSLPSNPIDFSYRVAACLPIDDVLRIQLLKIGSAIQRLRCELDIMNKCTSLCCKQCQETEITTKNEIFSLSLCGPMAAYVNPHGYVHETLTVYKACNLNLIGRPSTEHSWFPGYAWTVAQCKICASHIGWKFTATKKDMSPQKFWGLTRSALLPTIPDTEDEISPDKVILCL
CDK1/Cyclin E (Homo sapiens), sequence (P06493 whole entry, looked up): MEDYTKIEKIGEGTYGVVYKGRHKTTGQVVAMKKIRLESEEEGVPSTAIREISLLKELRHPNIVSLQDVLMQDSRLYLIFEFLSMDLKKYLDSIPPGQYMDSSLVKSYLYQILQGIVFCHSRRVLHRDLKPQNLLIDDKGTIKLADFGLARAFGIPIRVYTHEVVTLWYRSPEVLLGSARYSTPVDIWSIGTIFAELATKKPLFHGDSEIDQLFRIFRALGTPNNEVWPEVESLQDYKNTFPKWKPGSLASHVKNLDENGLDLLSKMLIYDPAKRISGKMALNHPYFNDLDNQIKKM
CDK1/Cyclin E (Homo sapiens), sequence (P24864 whole entry, looked up): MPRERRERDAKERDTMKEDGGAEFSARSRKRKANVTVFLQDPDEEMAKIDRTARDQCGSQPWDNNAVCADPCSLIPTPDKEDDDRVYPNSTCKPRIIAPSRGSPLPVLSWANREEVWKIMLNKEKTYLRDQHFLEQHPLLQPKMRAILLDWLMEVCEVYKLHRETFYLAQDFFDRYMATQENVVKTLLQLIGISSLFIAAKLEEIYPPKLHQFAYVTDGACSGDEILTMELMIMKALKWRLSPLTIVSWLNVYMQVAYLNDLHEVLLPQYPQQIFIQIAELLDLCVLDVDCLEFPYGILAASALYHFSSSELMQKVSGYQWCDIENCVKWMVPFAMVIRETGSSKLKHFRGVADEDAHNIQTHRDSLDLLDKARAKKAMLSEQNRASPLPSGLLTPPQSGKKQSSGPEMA
Cyclin-dependent kinase 9 (Homo sapiens), sequence (P50750 whole entry): as the sequence (P50750 whole entry, looked up) above
CDK3/Cyclin E (Homo sapiens), sequence (P24864 whole entry, looked up): as the sequence (P24864 whole entry, looked up) above
CDK3/Cyclin E (Homo sapiens), sequence (Q00526 whole entry, looked up): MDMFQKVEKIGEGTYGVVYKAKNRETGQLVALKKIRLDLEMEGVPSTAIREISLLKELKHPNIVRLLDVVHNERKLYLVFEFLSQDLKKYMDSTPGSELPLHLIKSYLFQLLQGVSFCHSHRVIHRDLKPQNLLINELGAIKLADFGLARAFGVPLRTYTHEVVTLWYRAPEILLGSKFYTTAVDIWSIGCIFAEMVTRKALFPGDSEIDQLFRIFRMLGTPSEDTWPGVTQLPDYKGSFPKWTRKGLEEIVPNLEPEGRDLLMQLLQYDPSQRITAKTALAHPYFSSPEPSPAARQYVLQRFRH

Structure (SMILES): O=C1CCC(Nc2cccc(N3CCN(CC4CCN(CC(=O)N5CCC(NC(=O)c6n[nH]cc6NC(=O)c6c(Cl)cccc6Cl)CC5)CC4)CC3)c2)C(=O)N1 (stereo not given)
- inhibition [1]: 15%
- Activity [2]: Dose-dependent-effect
- Activity [3]: Not active; Very Short Self-Renewal Period For Cdk9 Observed
- Activity [4]: Active
- Activity [5]: Active
- Activity [6]: Active
- Activity [7]: inactive
- Activity [8]: Dose-dependent-effect
- inhibition [9]: Active
- Activity [10]: Dose-dependent-effect
- inhibition [11]: Active
- inhibition [12]: Active
- Activity [13]: Dose-dependent-effect
- inhibition [14]: 38%
- inhibition [15]: 31%
- inhibition [16]: Active
- inhibition [17]: 33%
- Activity [18]: Active
- Activity [19]: Active
- Activity [20]: Active
- Activity [21]: Dose-dependent-effect
- inhibition [22]: 24%
- Activity [23]: Active
- Activity [24]: Active
- Activity [25]: Active
